Assay results: patent US9610359B2, “Methods and compositions related to annexin 1-binding compounds” (Burnham Institute for Medical Research, priority 2009, dated 2017)
No end group written: not given here.

Key:
[1] = system: Mouse Lewis lung carcinoma (LLC) tumors; test: subcutaneous Lewis lung carcinoma tumor model; format: in vivo; conditions: 0.13 μmoles iv
Method: (§1) FIGS. 6A and 6B show the effect of IF7-GA on melanoma, lung carcinoma, prostate cancer, and breast cancer mouse models. A, Effect of IF7-GA on tumor size. […] Mice were euthanised on day 15 to measure tumor weight. […] Mice were euthanised on day 13 and tumors weighed. (c) Human prostate cancer PC3 tumors were grown orthotopically in the prostate of SCID mice. On day 7, each mouse was injected intravenously with the compounds as in A-a, and injections administered every 4 days, for a total of four injections, until day 22. Mice were euthanised on day 28 and tumors weighed. (d) Human breast cancer MDA-MB-231 tumors were grown orthotopically in fat pads of SCID mice. On day 7, each mouse was injected intravenously with the compounds as in A-a, and injections performed every 4 days, for a total of four injections, until day 22. […] B, Histochemistry of tumors from the mice intravenously injected with the compounds described in A. Apoptotic tumor cells along blood vessels in transplanted tumors are detected by TUNEL assay. […]
(§2) Mouse melanoma B16F1 cells (2×10^5 cells/100 μl serum-free DMEM) were injected subcutaneously into the dorsal flank of C57BL/6 female mice (8-10 weeks old). […] On day 15, mice were sacrificed and tumor weights determined. […] On day 13, mice were sacrificed and tumor weights determined. […] On day 28, mice were sacrificed and prostate tumor weights determined. […]

[2] = target: T1, Anxa1-His protein (Homo sapiens, UniProt P04083); test: surface plasmon resonance on Anxa1 coated chip; format: binding; conditions: qualitative
T1 construct: Full-length cDNA encoding Anxa1 was obtained from Invitrogen (Carlsbad, Calif.) and subcloned into pET29a vector; His6 (C); made in house; host or cells: bacteria (pET29a vector, Novagen)
T1 sequence (P04083 1-346): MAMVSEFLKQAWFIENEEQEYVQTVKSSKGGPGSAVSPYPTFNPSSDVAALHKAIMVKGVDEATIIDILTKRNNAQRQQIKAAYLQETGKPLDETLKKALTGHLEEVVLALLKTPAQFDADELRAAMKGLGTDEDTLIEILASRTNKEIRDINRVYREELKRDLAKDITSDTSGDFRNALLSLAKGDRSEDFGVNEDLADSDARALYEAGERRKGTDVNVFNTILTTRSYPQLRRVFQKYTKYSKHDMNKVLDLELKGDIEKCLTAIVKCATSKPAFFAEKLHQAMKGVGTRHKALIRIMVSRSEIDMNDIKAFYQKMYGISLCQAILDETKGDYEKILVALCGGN
Method: IASys (Affinity Sensors, Cambridge, UK) was used. Anxa1-His protein was immobilized on the sensor chip by cross-linking to the aminosilane surface using bis[sulfosuccinimidyl] substrate (Pierce). Binding of IF7C dissolved in TBSC was recorded for 2 min, and dissociation of IF7C was initiated by adding TBSC to the sensor chip and the arc second was recorded for 5 min.

[3] = target: T2, Anxa1-His6 protein (Homo sapiens, UniProt P04083); test: inhibition of binding of FITC-labeled polyacrylamide-LeA oligosaccharide to Anxa1-His6
T2 construct: Full-length cDNA encoding Anxa1 was obtained from Invitrogen (Carlsbad, Calif.) and subcloned into pET29a vector; His6 (C); made in house; host or cells: bacteria (pET29a vector, Novagen)
T2 sequence (P04083 1-346): T1 sequence (P04083 1-346)
Excerpt: (§3) FIGS. 1A-1H show the essential role of annexin 1 (Anxa1) in tumor growth and identification of a peptide sequence with tumor vasculature targeting activity in vivo. A and B. Growth of B16 tumors subcutaneously injected into Anxa1(+/−) and Anxa1(−/−) mutant mice. C. Histology of B16 tumors produced in Anxa1(+/−) and Anxa1(−/−) mice. Each scale bar represents 2.00 mm. D. Immunohistochemistry of B16 tumors for CD31 showing endothelial cells and vasculature. Each scale bar represents 200 μm. E. In vivo phage targeting in B16 tumor-bearing mice. Numbers of transformed colonies recovered from the tumor or lung were determined. […] F. In vivo tumor and organ targeting activity of IFLLWQR (SEQ ID NO:2) displaying phage. Phage was injected into B16 tumor bearing mice pre-injected with anti-Anxa1 antibody or with control rabbit IgG. G. In vitro plate assay for binding of IF7-A488 (upper line) and control RQ7-A488C (lower line) to recombinant […] protein produced by bacteria. H. Effect of IF7 (upper line) and control RQ7 (lower line) on binding of FITC-labeled polyacrylamide-LeA oligosaccharide to Anxa1-His6 protein.
Full-length cDNA encoding Anxa1 was obtained from Invitrogen (Carlsbad, Calif.) and subcloned into pET29a vector (Novagen) to produce an […] fusion protein. […] After washing the plate, fluorescence was measured by a Molecular Devices Analyst HT plate reader. […]

[4] = system: B16 tumor; test: in vivo phage targeting in B16 tumor-bearing mice; design: species or system mouse
Excerpt: as §3
Mouse melanoma B16F1 cells (2×10^5 cells/100 μl PBS) were injected subcutaneously into the dorsal flank of C57BL/6 female mice (8-10 weeks old). […] Colonies appearing on an agar plate after culturing at 37° C. for 20 hours were counted.

[5] = system: Human prostate cancer PC3 tumors; test: orthotopic PC3 prostate cancer model in SCID mice; format: in vivo; conditions: 0.13 μmoles iv
Method: as §1, §2

[6] = system: Human breast cancer MDA-MB-231 tumors; test: orthotopic MDA-MB-231 breast cancer model in SCID mice; format: in vivo; conditions: MDA-MB-231 breast tumor, 0.13 μmoles iv
Method: as §1, §2

[7] = system: Mouse melanoma B16F1 tumors; format: in vivo; conditions: B16 melanoma, 0.13 μmoles iv
Method: (a) Mouse melanoma B16F1 tumors were grown subcutaneously in C57BL6 mice. On day 10, each mouse was injected intravenously with either 100 μl of 5% glucose or that containing 0.13 μmoles of each IF7, GA, or IF7-GA. Injections were administered every other day, for a total of three injections, until day 14. […] B, Histochemistry of tumors from the mice intravenously injected with the compounds described in A. Apoptotic tumor cells along blood vessels in transplanted tumors are detected by TUNEL assay. B16 melanoma (a), LLC lung carcinoma (b), PC3 prostate tumor (c) and MDA-MB-231 breast tumor (d) from mice treated with each compound.
Injections were administered every other day, for a total of 7 injections, until day 26, as shown by arrows.

[8] = target: T1, Anxa1-His protein; test: isothermal titration calorimetry (ITC) with Anxa1-His protein; format: binding; conditions: qualitative
Method: ITC was performed on a VP-ITC calorimeter from Microcal (Northampton, Mass.). In this analysis IF7K3C peptide or […] (SEQ ID NO:12), in which IF7 was modified by inserted with three lysine residues between IF7 and C to increase solubility in water. Eight μl aliquots of solution containing 1.0 or 1.5 mM were injected into the cell containing 100 or 150 μM Anxa1-His protein. In each experiment 37 injections were made. The experiments were performed at 23° C. in buffer containing 20 mM Tris pH 7.9, 250 mM NaCl, 1 mM CaCl2 and 10% dimethylsulfoxide. Experimental data were analyzed using Microcal Origin software provided by the ITC manufacturer (Microcal, Northampton, Mass.).

[9] = system: annexin 1 (Anxa1) fragment; conditions: cited from earlier work
[10] = system: normal lung; conditions: through pre-mRNA splicing factors; cited from earlier work
[11] = system: carbohydrate-dependent cancer cell colonization to the lung; conditions: synthetic peptide injected intravenously into mice; cited from earlier work
[12] = system: B16 tumor vasculature; test: targeting and penetration in B16 tumor vasculature after intravenous injection; format: in vivo; conditions: B16 tumor-bearing mouse
Method: (§4) A. Binding of IF7C(RR)-conjugated FITC-polylysine on the surface of mouse endothelial F-2 cells cultured in vitro. B. Transport of […] FITC-poly-L-lysine through apical surface to basal space of F-2 cells monolayer. F-2 cells cultured on a filter of trans well insert was added with IF7C(RR)-conjugated FITC-poly-L-lysine to allow the reagent being bound to apical cell surface of F-2 cells. After washing the monolayer with medium, insert was placed in wells containing medium at 37° C. or at 4° C. Fluorescence moved to the lower chamber of insert was measured. C. Targeting and penetration of intravenously injected IF7C(RR)-conjugated FITC-poly-L-lysine in the B16 tumor in vivo in the mouse. Tissue section was immunostained for endothelial cell marker CD31.
(§5) Thus IFLLWQR-C-RR (SEQ ID NO: 17) or IF7C(RR) was synthesized. […] The cytoplasmic and nuclear FITC signals are consistent with the localization of Anxa1 in the cytoplasm and nucleus (Gerke, 2005 #5299). […] (FIG. 12B). […] To determine if the binding and transport of IF7C(RR) occur in vivo in the tumor vasculature, IF7C(RR)-conjugated FITC-poly-L-lysine was injected intravenously into a B16 tumor-bearing mouse. […] Small molecules such as SN-38 conjugated with IF7C(RR) can penetrate to the tumor deeper and faster than the large molecule such as poly-L-lysine.

[13] = system: Anxa1-expressing mouse endothelial F-2 cells; test: binding to the surface of F-2 cells cultured in vitro; format: cell-based
Method: as §4, §5

[14] = system: F-2 cells monolayer; test: transport through F-2 cell monolayer in trans well chamber; format: cell-based, mouse
Method: as §4, §5

**Q.** Which results are given for “IFLLWQR (annexin-1 binding compound) [IF7]”?
**A.** apoptosis of perivascular tumor cells (TUNEL) [1]: rarely show apoptosis; binding to Anxa1 by surface plasmon resonance [2]: confirmed; inhibition of fucosylated carbohydrate (LeA) binding to Anxa1 [3]: inhibited by IF7; targeting to the lung in tumor-bearing mice ([4]; mouse, in vivo): could not be detected; organ targeting of intravenously injected phage clone ([4]; tumor versus lung, B16 tumor-bearing mice): targets tumor but not lung tissue; apoptosis of perivascular tumor cells (TUNEL) [5]: rarely show apoptosis; apoptosis of perivascular tumor cells (TUNEL) [6]: rarely show apoptosis; apoptosis of perivascular tumor cells (TUNEL, histochemistry) [7]: rarely show apoptosis; binding to Anxa1 by isothermal titration assay [8]: confirmed

**Q.** What does the source list for “IELLQAR [I-peptide, selectin ligand mimicry peptide]”?
**A.** binding to annexin 1 fragment [9]: bound to an annexin 1 (Anxa1) fragment; targeting to normal lung [10]: also targets to normal lung; cancer cell colonization to the lung [11]: inhibited carbohydrate-dependent cancer cell colonization to the lung

**Q.** Which results are given for “IF7C(RR)-conjugated FITC-poly-L-lysine: IF7C(RR) conjugated to FITC-poly-L-lysine (IFLLWQRCRR; also: conjugated to FITC-poly-L-lysine, site not given here)”?
**A.** localization of fluorescence in tumor tissue sections [12]: green fluorescence signals around the abluminal area of the vasculatures; binding to the surface of F-2 cells [13]: bound to the surface of Anxa1-expressing mouse endothelial F-2 cells; transport of fluorescence to the lower chamber at 4° C. ([14]; 4° C.): not at 4 °C; transport of fluorescence to the lower chamber at 37° C. ([14]; 37° C.): fluorescence migrated to the lower chamber
